In article PMC11372837, “Albumin-Mediated Drug Uptake by Organic Anion Transporter 1/3 Is Real: Implications for the Prediction of Active Renal Secretion Clearance” (Molecular Pharmaceutics, 2024):
Several values for one entry are separate records, joined by “and”; a condition that tells them apart may be missing. Equal values may be shown once. Entries after “also recorded” stand apart in the source; their conditions may differ. Read-outs that look alike come from different tables or passages of the source.

Tests used:
[1] = target: human serum albumin (Homo sapiens, UniProt P02768); test: Extent of albumin binding: high throughput equilibrium dialysis (fu,inc, Kd); format: in vitro ADME; settings: mean ± SD; for Kd: estimated using eq 3 from measured fu,inc; for fraction unbound at 6 h: human; for fraction unbound at 6 h / fu,inc (4%): equilibrium dialysis 37 °C 6 h
human serum albumin, sequence (P02768 25-609): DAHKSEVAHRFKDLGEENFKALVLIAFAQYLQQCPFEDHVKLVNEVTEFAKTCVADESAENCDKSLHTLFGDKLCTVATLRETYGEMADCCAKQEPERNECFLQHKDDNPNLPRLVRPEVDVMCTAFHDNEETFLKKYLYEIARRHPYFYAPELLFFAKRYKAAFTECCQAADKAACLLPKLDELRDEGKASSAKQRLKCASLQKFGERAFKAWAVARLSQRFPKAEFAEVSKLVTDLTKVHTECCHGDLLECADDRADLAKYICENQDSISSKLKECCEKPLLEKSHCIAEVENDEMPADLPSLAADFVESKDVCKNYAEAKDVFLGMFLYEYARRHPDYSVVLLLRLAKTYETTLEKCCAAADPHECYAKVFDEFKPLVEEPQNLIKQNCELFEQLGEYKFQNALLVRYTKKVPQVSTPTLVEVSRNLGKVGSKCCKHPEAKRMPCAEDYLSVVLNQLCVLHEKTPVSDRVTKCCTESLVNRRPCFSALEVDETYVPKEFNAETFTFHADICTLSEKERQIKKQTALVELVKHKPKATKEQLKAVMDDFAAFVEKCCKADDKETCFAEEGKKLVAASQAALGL
Description: Briefly, cellulose membranes with MWCO of 12–14 kDa were submerged in distilled water for 1 h, followed by 20% ethanol/distilled water for at least 20 min. Prior to the start of the experiment, cellulose membranes were rinsed in distilled water and submerged in blank DPBS for 15 min. The HTDialysis device was assembled according to the manufacturer’s instructions (https://www.htdialysis.com). Blank DPBS was first added to the receiver side of the dialysis membranes, followed by DPBS spiked with HSA and the OAT1/3 substrate to the donor side. Each HSA concentration was tested in triplicates. The HTDialysis device was sealed with an adhesive sealing film and incubated in a water bath at 37 °C for 6 h shaken at 150 rpm. Once the assay was completed, aliquots from both receiver and donor wells were transferred to a 96-well plate and stored at −80 °C until analysis. DPBS spiked with the OAT1/3 substrate from both before and after incubation was stored to assess the recovery and stability of the samples. To prepare the sample for analysis, donor and receiver samples were matrix-matched and quenched with ice-cold acetonitrile containing an internal standard (0.5 μM gemfibrozil or 0.05 μM buspirone).

[2] = human, in vivo
[3] = in vivo, plasma renal clearance, clinical data; cited from earlier work
[4] = target: T1, OAT1 (Homo sapiens, UniProt Q4U2R8); test: OAT1 uptake study in ciPTEC-OAT1; settings: for OAT1 substrate status (uptake in ciPTEC-OAT1): control vs probenecid 300 μM; for Vb,max OAT1, Active and Passive Uptake: eq 4 fitted to CLint,u; for Vb,max OAT1, Active and Passive Uptake / Vb,max OAT1, Active Uptake Only: mean ± S.D.; for Vb,max OAT1, Active Uptake Only: eq 4 fitted to CLint,u,active, Kd,m fixed from OAT3 data
T1 sequence (Q4U2R8 1-563): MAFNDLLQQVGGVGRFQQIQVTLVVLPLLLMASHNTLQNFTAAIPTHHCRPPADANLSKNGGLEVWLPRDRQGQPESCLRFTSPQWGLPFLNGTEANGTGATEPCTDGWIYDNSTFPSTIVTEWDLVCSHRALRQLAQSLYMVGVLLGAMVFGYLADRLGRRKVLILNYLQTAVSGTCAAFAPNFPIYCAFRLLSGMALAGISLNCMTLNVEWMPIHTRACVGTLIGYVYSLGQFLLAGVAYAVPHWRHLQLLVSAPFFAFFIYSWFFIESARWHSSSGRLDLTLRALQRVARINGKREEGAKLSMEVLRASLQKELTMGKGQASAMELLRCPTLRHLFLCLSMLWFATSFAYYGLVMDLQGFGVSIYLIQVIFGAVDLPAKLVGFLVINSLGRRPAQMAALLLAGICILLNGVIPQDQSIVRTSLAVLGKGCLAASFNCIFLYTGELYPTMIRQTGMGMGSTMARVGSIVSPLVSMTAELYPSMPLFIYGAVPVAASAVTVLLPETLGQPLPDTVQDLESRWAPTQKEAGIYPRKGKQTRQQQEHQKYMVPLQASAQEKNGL

[5] = target: T2, OAT3 (Homo sapiens, UniProt Q8TCC7); test: OAT3 uptake study in ciPTEC-OAT3; settings: for OAT3 substrate status (uptake in ciPTEC-OAT3): control vs probenecid 300 μM; for Vb,max OAT3, Active and Passive Uptake: eq 4 fitted to CLint,u; for Vb,max OAT3, Active and Passive Uptake / Vb,max OAT3, Active Uptake Only: mean ± S.D.; for Vb,max OAT3, Active Uptake Only: eq 4 fitted to CLint,u,active; for ratio of CLint,u,active (R) (HSA/control) 1%: OAT3, 1% HSA vs control; for ratio of CLint,u,active (R) (HSA/control) 4%: OAT3, 4% HSA vs control
T2 sequence (Q8TCC7 1-542): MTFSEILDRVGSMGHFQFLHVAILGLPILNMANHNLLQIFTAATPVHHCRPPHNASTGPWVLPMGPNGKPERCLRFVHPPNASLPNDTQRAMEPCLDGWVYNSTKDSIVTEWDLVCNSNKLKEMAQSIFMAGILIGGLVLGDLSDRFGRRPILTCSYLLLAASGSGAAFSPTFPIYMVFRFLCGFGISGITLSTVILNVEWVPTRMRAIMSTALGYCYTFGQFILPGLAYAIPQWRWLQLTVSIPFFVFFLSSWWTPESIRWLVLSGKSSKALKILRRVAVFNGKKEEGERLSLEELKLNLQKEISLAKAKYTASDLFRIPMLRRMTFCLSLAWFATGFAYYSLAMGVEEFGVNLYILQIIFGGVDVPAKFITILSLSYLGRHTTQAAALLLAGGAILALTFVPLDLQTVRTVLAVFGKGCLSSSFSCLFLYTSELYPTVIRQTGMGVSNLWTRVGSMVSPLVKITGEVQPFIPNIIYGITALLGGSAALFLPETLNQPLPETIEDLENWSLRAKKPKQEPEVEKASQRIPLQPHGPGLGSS

[6] = tested on: OAT3; test: clinical; settings: human
[7] = tested on: OAT1/3; test: Bottom-up IVIVE of CLint,sec, CLsec and CLr, relative expression factor (REF) approach; design: species or system human; settings: REF approach
Description: (§1) The relative expression and relative activity factor (REF and RAF) are unitless scalers that account for in vivo versus in vitro differences in the abundance and activity of OAT1/3 and are used for IVIVE of in vitro CLint,u,active. REF was derived from the OAT1/3 expression ratio between the in vivo human kidney cortex to the in vitro ciPTEC-OAT1/3, as shown in eq 7: [drawing 8] 7 Absolute abundance of OAT1 and OAT3 in the human kidney cortex was previously quantified by our group using the filter-aided sample preparation protocol and global proteomic analysis.[44]

[8] = tested on: OAT1/3; test: Bottom-up IVIVE of CLint,sec, CLsec and CLr, relative activity factor (RAF) approach; design: species or system human
Description: as §1

[9] = Observed in vivo (clinical) renal, secretion and intrinsic secretion clearance; settings: in vivo; for CLint,sec Observed: back-calculated from clinical data
[10] = tested on: OAT1; test: as above; settings: human, plasma
[11] = 1% human serum albumin in DPBS, 1% HSA, read-out: fu,inc (1%)
[12] = 4% HSA in DPBS, 4% HSA, read-out: fu,inc (4%)

Compound	Kd [1]	fraction unbound at 6 h [1, 11]	fraction unbound at 6 h [1, 12]	CLint,sec Observed [2]	CLsec Observed [2]	CLr Observed [3]	OAT1 substrate status (uptake in ciPTEC-OAT1) [4]	Vb,max OAT1, Active and Passive Uptake [4]	Vb,max OAT1, Active Uptake Only [4]	OAT3 substrate status (uptake in ciPTEC-OAT3) [5]	Vb,max OAT3, Active and Passive Uptake [5]	Vb,max OAT3, Active Uptake Only [5]	fu,inc (4%) ([1]; 4% HSA)	CLint,sec Predicted 0% HSA [7]	CLint,sec Predicted 1% HSA [7]	CLint,sec Predicted 4% HSA [7]	CLsec Predicted 0% HSA [7]	CLsec Predicted 1% HSA [7]	CLsec Predicted 4% HSA [7]	CLint,sec Predicted 0% HSA [8]	also measured
CCCCNc1cc(C(=O)O)cc(S(N)(=O)=O)c1Oc1ccccc1 [bumetanide]	21.1 ± 1.4 µM	0.141 ± 0.012	0.029 ± 0.003	680 L/h	5.51 L/h	5.77 L/h	dual OAT1/3 substrates	467 ± 49.4 pmol/min/mg	447 ± 48 pmol/min/mg	dual OAT1/3 substrates	492 ± 144 pmol/min/mg	470 ± 132 pmol/min/mg									
CCC(CC)O[C@@H]1C=C(C(=O)O)C[C@H](N)[C@H]1NC(C)=O [oseltamivir carboxylate]		0.973 ± 0.039	> 0.95	11.7 L/h	8.29 L/h	15.6 L/h					-1150 ± 2660 pmol/min/mg	-1120 ± 2640 pmol/min/mg	0.983 ± 0.018								microsomal CLint [6]: 36.2 µL/min/mg; Effect of HSA on OAT3 uptake / CLint,u,active ([5]; 1 and 4% HSA vs control): no effect; also recorded: did not show any significant change; also recorded: absence of any change
O=C(NC[C@H]1CN(c2ccc(N3CCOCC3=O)cc2)C(=O)O1)c1ccc(Cl)s1 [rivaroxaban]	55 ± 4.3 µM	0.217 ± 0.006	0.096 ± 0.007		2.63 L/h	3.17 L/h	did not show any appreciable uptake				723 ± 216 pmol/min/mg	714 ± 201 pmol/min/mg		6.78 L/h	41.7 L/h	67.0 L/h	0.48 L/h	2.79 L/h	4.32 L/h	34.1 L/h	CLint,sec Predicted 1% HSA [8]: 210 L/h; CLint,sec Predicted 4% HSA [8]: 337.7 L/h; CLsec Predicted 0% HSA [8]: 2.32 L/h; CLsec Predicted 1% HSA [8]: 11.1 L/h; CLsec Predicted 4% HSA [8]: 15.4 L/h; ratio of CLint,u,active (R) (HSA/control) 1% [5]: 6.44 ± 2.61; ratio of CLint,u,active (R) (HSA/control) 4% [5]: 10.0 ± 2.2; CLint,sec Observed [9]: 41.2 L/h
Nc1ncnc2c1ncn2CCOCP(=O)(O)O [adefovir]		0.999 ± 0.019	> 0.95			14.2 L/h		-1083 ± 194000 pmol/min/mg	3055 ± 188000 pmol/min/mg	not an OAT3 substrate			0.977 ± 0.062	42.9 L/h	57.8 L/h	44.7 L/h	21.3 L/h	25.1 L/h	21.8 L/h		Effect of HSA on OAT1 uptake / CLint,u,active ([4]; 1 and 4% HSA vs control): no effect; also recorded: did not show any significant change; also recorded: absence of any change; CLint,sec Observed [9]: 10.8 L/h; CLsec Observed ([9]; plasma secretion clearance): 7.82 L/h; microsomal CLint [10]: 35.2 µL/min/mg
CC(C)c1nc(N(C)S(C)(=O)=O)nc(-c2ccc(F)cc2)c1/C=C/[C@@H](O)C[C@@H](O)CC(=O)O [rosuvastatin]	127 ± 5.6 µM	0.435 ± 0.041	0.18 ± 0.009	130 L/h	11.1 L/h	11.9 L/h	did not show any appreciable uptake				290 ± 101 pmol/min/mg	281 ± 96 pmol/min/mg		6.80 L/h	13.6 L/h	17.7 L/h	0.78 L/h	1.52 L/h	1.96 L/h	34.3 L/h	CLint,sec Predicted 1% HSA [8]: 68.3 L/h; CLint,sec Predicted 4% HSA [8]: 89.0 L/h; CLsec Predicted 0% HSA [8]: 3.64 L/h; CLsec Predicted 1% HSA [8]: 6.66 L/h; CLsec Predicted 4% HSA [8]: 8.27 L/h; ratio of CLint,u,active (R) (HSA/control) 1% [5]: 2.12 ± 0.58; ratio of CLint,u,active (R) (HSA/control) 4% [5]: 2.7 and 2.68 ± 0.62
